Reference: ChEMBL document CHEMBL1156014, “Synthesis of antibacterial pseudopeptides with less hemolytic activity from a cytotoxic peptide and their pH-dependent activity” (Bioorg Med Chem Lett, 2009)
≈ marks a conversion by molar mass, not a printed value. Where a SMILES comes first, the peptide text is derived from it. The star is where a group is joined. X2 = CC(C)C[C@H](NC[C@H](CCCCN)N*)C(=O)N[C@@H](CC(C)C)C(=O)N[C@@H](CCCCN)C(N)=O

Legend:
Escherichia coli [1] = test: Antibacterial activity against Escherichia coli ATCC 25922 at pH 7.4; assay type: functional
Pseudomonas aeruginosa [2] = test: Antibacterial activity against Pseudomonas aeruginosa ATCC 9027 at pH 8.4; assay type: functional
Staphylococcus aureus [3] = test: Antibacterial activity against Staphylococcus aureus ATCC 6538 at pH 8.4; assay type: functional
Micrococcus luteus [4] = test: Antibacterial activity against Micrococcus luteus ATCC 9341 at pH 7.4; assay type: functional
Staphylococcus aureus [5] = test: Antibacterial activity against Staphylococcus aureus ATCC 6538 at pH 7.4; assay type: functional
Escherichia coli [6] = test: Antibacterial activity against Escherichia coli ATCC 25922 at pH 8.4; assay type: functional
[7] = Permeability across Escherichia coli large unilamellar vesicles assessed as calcein entrapped leakage from phosphatidylglycerol/phosphatidylcholine at pH 7.4; assay type: ADME
Pseudomonas aeruginosa [8] = test: Antibacterial activity against Pseudomonas aeruginosa ATCC 9027 at pH 7.4; assay type: functional
[9] = Permeability across Escherichia coli large unilamellar vesicles assessed as calcein entrapped leakage from phosphatidylglycerol/phosphatidylcholine at pH 8.4; assay type: ADME
Micrococcus luteus [10] = test: Antibacterial activity against Micrococcus luteus ATCC 9341 at pH 8.4; assay type: functional
[11] = Toxicity in human erythrocytes assessed as hemolytic activity up to 200 ug/ml at pH 7.4 after 1 hr; assay type: cell-based; settings: erythrocyte, pH 7.4, 1 h
[12] = Permeability across Escherichia coli large unilamellar vesicles assessed as calcein entrapped leakage from phosphatidylglycerol/phosphatidylcholine at 7.5 uM at pH 7.4; assay type: ADME; settings: pH 7.4, 7.5 µM
[13] = Permeability across Escherichia coli large unilamellar vesicles assessed as calcein entrapped leakage from phosphatidylglycerol/phosphatidylcholine at 15 uM at pH 8.4; assay type: ADME; settings: pH 8.4, 15 µM

Molecule	MIC (Escherichia coli [1]) [µg/mL]	MIC (Pseudomonas aeruginosa [2]) [µg/mL]	MIC (Staphylococcus aureus [3]) [µg/mL]	MIC (Micrococcus luteus [4]) [µg/mL]	MIC (Staphylococcus aureus [5]) [µg/mL]	MIC (Escherichia coli [6]) [µg/mL]	Activity [7]	MIC (Pseudomonas aeruginosa [8]) [µg/mL]	Activity [9]	MIC (Micrococcus luteus [10]) [µg/mL]	Activity [11]	Activity [12] [%]	Activity [13] [%]
CC(=O)N[C@@H](CCCCN)C(=O)N[C@@H](CC(C)C)C(=O)N[C@@H](CC(C)C)C(=O)N[C@@H](CC(C)C)C(=O)N[C@@H](CCCCN)C(=O)N[C@@H](CC(C)C)C(=O)N[C@@H](Cc1c[nH]c2ccccc12)C(=O)N[C@@H](CC(C)C)C(=O)N[C@@H](CCCCN)CN[C@@H](CC(C)C)C(=O)N[C@@H](CC(C)C)C(=O)N[C@@H](CCCCN)C(N)=O (Ac-KLLLKLWL-X2)	12.5 (≈ 8.14 µM)	50 (≈ 32.5 µM)	12.5 (≈ 8.14 µM)	6.25 (≈ 4.07 µM)	6.25 (≈ 4.07 µM)	25 (≈ 16.3 µM)	Dose-dependent effect	50 (≈ 32.5 µM)	Dose-dependent effect	6.25 (≈ 4.07 µM)	Not Active		
Ac-KLLLKLWLKLLK-NH2	12.5	50	25	6.25	6.25	50	Dose-dependent effect	50	Dose-dependent effect	6.25		90	80
